From US11944622B2 (Annapurna Bio, Inc., priority 2018, dated 2024)

Target: T1, APJ Receptor (Homo sapiens, UniProt P35414)
T1 sequence (P35414 1-380): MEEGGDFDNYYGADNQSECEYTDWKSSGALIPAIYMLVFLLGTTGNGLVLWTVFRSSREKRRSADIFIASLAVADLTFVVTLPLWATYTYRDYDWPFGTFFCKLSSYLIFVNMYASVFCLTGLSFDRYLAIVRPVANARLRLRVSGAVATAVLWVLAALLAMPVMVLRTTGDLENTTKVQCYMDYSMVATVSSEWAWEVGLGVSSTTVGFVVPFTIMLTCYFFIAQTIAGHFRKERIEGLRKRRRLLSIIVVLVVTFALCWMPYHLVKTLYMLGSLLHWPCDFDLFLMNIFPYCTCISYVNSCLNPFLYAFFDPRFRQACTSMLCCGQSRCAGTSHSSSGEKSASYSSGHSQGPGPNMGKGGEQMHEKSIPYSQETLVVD
Test: APJ cAMP assay (DiscoverX enzyme fragment complementation; inhibition of forskolin-stimulated cAMP)
Format: cell-based
Conditions: CHO-K1 cell line stably expressing the APJ Receptor; EC80 forskolin; 30 minutes at 37° C.; read-out: Potency Range (APJ cAMP EC50)
Description: Activation of APJ receptor is known to inhibit forskolin-stimulated cyclic AMP (cAMP) production in cells in a pertussis toxin-sensitive manner which indicates primary coupling to the GαI subunit of the G protein heterotrimeric complex. In addition to signaling through G protein and inhibition of cAMP, APJ receptor activation also results in β-arrestin recruitment, receptor internalization and activation of extracellular-regulated kinases (ERKs).
In order to optimize functional activity directed toward Gi coupling we utilized a CHO-K 1 cell line developed by DiscoverX stably expressing the APJ Receptor. Cells expressing APJR receptor were plated in a 384-well microtiter plates and incubated overnight at 37° C. with 5% CO2 to allow the cells to attach and grow. Media was then aspirated from the cells and replaced with 15 uL 2:1 Hanks Balanced Salt Solution (HBSS)/10 mM Hepes:cAMP XS+Ab reagent. Five microliters (5 uL) of previously generated compound sample stocks at 4× final concentration in assay buffer containing 4× EC80 forskolin were then added to the cells and allowed to incubate at 37° C. for 30 minutes.
After incubation the assay signal was generated using a technology termed enzyme fragment complementation (EFC). In EFC the enzyme B-galactosidase is split into two complementary portions (EA and ED). The fragment ED is fused to cAMP and in the assay format competes with endogenous cAMP for binding to a cAMP specific antibody. Activated B-Gal is formed when exogenous EA fragment binds to free ED-cAMP (not bound to cAMP specific antibody). Activated enzyme levels are detected through conversion of B-gal chemiluminescent substrate which generates a detectable luminescence signal and read on standard microtiter plate.
The methodology for detection of cAMP using EFC requires incubation with 20 uL of cAMP XS+ED/CL lysis cocktail for one hour followed by incubation with 20 uL cAMP XS+EA reagent for three hours at room temperature. Microplates were read following signal generation with a PerkinElmer Envision instrument utilizing chemiluminescent signal detection.
Compound activity was analyzed using CBIS data analysis suite (ChemInnovation, CA). Percentage activity was calculated using the following formula: % Activity=100%×(1−(mean RLU of test sample−mean RLU of Max control)/(mean RLU of vehicle control−mean RLU of Max control))

Row | Structure (SMILES) | EC50 [nM]
1 | CCOc1cccc(-c2nc3ncc(NS(C)(=O)=O)nc3n2C(C)C)n1 [Example 59, N-(2-(6-ethoxypyridin-2-yl)-1-isopropyl-II-1-imidazo[4,5-b]pyrazin-6-yl)methanesulfonamide] | 100 to 10000
2 | COc1cccc(OC)c1-n1c(-c2cncc(C)c2)nc2ncc(NS(=O)(=O)C3CC3)nc21 [Example 133, N-(1-(2,6-dimethoxyphenyl)-2-(5-methylpyridin-3-yl)-1H-imidazo[4,5-b]pyrazin-6-yl)cyclopropanesulfonamide] | 100 to 10000
3 | CCOc1cccc(-c2nc3nc(Cl)c(NS(=O)(=O)C4CC4)nc3n2-c2c(OC)cncc2OC)n1 [Example 118, N-(5-Chloro-1-(3,5-dimethoxypyridin-4-yl)-2-(6-ethoxypyridin-2-yl)-1H-imidazo[4,5-b]pyrazin-6)cyclopropanesulfonamide] | 1 to 100
4 | CCOc1cccc(-c2nc3nc(COC(F)F)c(NS(C)(=O)=O)nc3n2-c2c(OC)cccc2OC)n1 [Example 141, N-(5-((Difluoromethoxy)methyl)-1-(2,6-dimethoxyphenyl)-2-(6-ethoxypyridin-2-yl)-1H-imidazo[4,5-b]pyrazin-6-yl)methanesulfonamide] | 1 to 100
5 | CCOc1cccc(-c2nc3nc(NS(C)(=O)=O)c(Cl)nc3n2-c2c(OC)cccc2OC)n1 [Example 138, N-(6-Chloro-1-(2,6-dimethoxyphenyl)-2-(6-ethoxypyridin-2-yl)-1H-imidazo[4,5-b]pyrazin-5-yl)methanesulfonamide] | 1 to 100
6 | CCOc1cccc(-c2nc3nc(Cl)c(NS(=O)(=O)Cc4ncc(F)cn4)nc3n2-c2c(OC)cccc2OC)n1 [Example 105, N-(5-Chloro-1-(2,6-dimethoxyphenyl)-2-(6-ethoxypyridin-2-yl)-1H-imidazo[4,5-b]pyrazin-6-yl)-1-(5-fluoropyrimidin-2-yl)methanesulfonamide] | < 1
7 | CC#CCS(=O)(=O)Nc1nc2c(nc1Cl)nc(-c1cccc(OCC)n1)n2-c1c(OC)cccc1OC [Example 110, N-(5-Chloro-1-(2,6-dimethoxyphenyl)-2-(6-ethoxypyridin-2-yl)-1H-imidazo[4,5-b]pyrazin-6-yl)but-2-yne-1-sulfonamide] | < 1
8 | CCOc1cccc(-c2nc3nnc(NS(=O)(=O)Cc4ccc(F)cc4)cc3n2-c2c(OC)cccc2OC)n1 [Example 122, N-(7-(2,6-Dimethoxyphenyl)-8-(6-ethoxypyridin-2-yl)-7H-imidazo[4,5-c]pyridazinyl)-1-(4-fluorophenyl)methanesulfonamide] | < 1
9 | CCOc1cccc(-c2nc3ncc(NS(=O)(=O)C[C@H]4C[C@](C)(O)C4)nc3n2-c2c(OC)cccc2OC)n1 [Example 81, trans-N-(1-(2,6-Dimethoxyphenyl)-2-(6-ethoxypyridin-2-yl)-1H-imidazo[4,5-b]pyrazin-6-yl)-1-((1r,3r)-3-hydroxy-3-methylcyclobutyl)methanesulfonamide] | 1 to 100
10 | CCOc1cccc(-c2nc3nc(Cl)c(NS(=O)(=O)Cc4ccc(C)cn4)nc3n2-c2c(OC)cccc2OC)n1 [Example 114, N-(5-Chloro-1-(2,6-dimethoxyphenyl)-2-(6-ethoxypyridin-2-yl)-1H-imidazo[4,5-b]pyrazin-6-yl)-1-(5-methylpyridin-2-yl)methanesulfonamide] | 1 to 100
11 | CCOc1cccc(-c2nc3nnc(NS(=O)(=O)Cc4ncc(Cl)cn4)cc3n2-c2c(OC)cccc2OC)n1 [Example 144, 1-(5-Chloropyrimidin-2-yl)-N-(7-(2,6-dimethoxyphenyl)-8-(6-ethoxypyridin-2-yl)-7H-imidazo[4,5-c]pyridazinyl)methanesulfonamide] | < 1
12 | CCOc1cccc(-c2nc3nc(Cl)c(NS(=O)(=O)Cc4ccc(F)cn4)nc3n2-c2c(OC)cccc2OC)n1 [Example 96, N-(5-Chloro-1-(2,6-dimethoxyphenyl)-2-(6-ethoxypyridin-2-yl)-1H-imidazo[4,5-b]pyrazin-6-yl)-1-(5-fluoropyridin-2-yl)methanesulfonamide] | < 1
13 | CCOc1cccc(-c2nc3nnc(NS(=O)(=O)C4CC4)cc3n2-c2c(OC)cccc2OC)n1 [Example 119, N-(7-(2,6-Dimethoxyphenyl)-8-(6-ethoxypyridin-2-yl)-7H-imidazo[4,5-c]pyridazinyl)cyclopropanesulfonamide] | 1 to 100
14 | CCOc1cccc(-c2nc3nc(F)c(NS(C)(=O)=O)nc3n2-c2c(OC)cccc2OC)n1 [Example 146, N-(1-(2,6-Dimethoxyphenyl)-2-(6-ethoxypyridin-2-yl)-5-fluoro-1H-imidazo[4,5-b]pyrazin-6-yl)methanesulfonamide] | 1 to 100
15 | CCOc1cccc(-c2nc3ncc(NS(C)(=O)=O)nc3n2-c2ncccc2OC)n1 [Example 49, N-(2-(6-ethoxypyridin-2-yl)-1-(3-methoxypyridin-2-yl)-1H-imidazo[4,5-b]pyrazin-6-yl)methanesulfonamide] | 100 to 10000
16 | CCOc1cccc(-c2nc3nc(Cl)c(NS(=O)(=O)c4cccnc4)nc3n2-c2c(OC)cccc2OC)n1 [Example 104, N-(5-Chloro-1-(2,6-dimethoxyphenyl)-2-(6-ethoxypyridin-2-yl)-1H-imidazo[4,5-b]pyrazin-6-yl)pyridine-3-sulfonamide] | 1 to 100
17 | CCOc1cccc(-c2nc3nc(Cl)c(NS(=O)(=O)Cc4cccc(F)c4)nc3n2-c2c(OC)cccc2OC)n1 [Example 143, N-(5-Chloro-1-(2,6-dimethoxyphenyl)-2-(6-ethoxypyridin-2-yl)-1H-imidazo[4,5-b]pyrazin-6-yl)-1-(3-fluorophenyl)methanesulfonamide] | 1 to 100
18 | CCOc1cccc(-c2nc3ncc(NS(=O)(=O)N4CCC(O)CC4)nc3n2-c2c(OC)cccc2OC)n1 [Example 42, N-(1-(2,6-dimethoxyphenyl)-2-(6-ethoxypyridin-2-yl)-1H-imidazo[4,5-b]pyrazin-6-yl)-4-hydroxypiperidine-1-sulfonamide] | 1 to 100

The remaining lines, values ahead:

Row | EC50 [nM] | Structure (SMILES)
19 | 1 to 100 | CCOc1cccc(-c2nc3ncc(NS(=O)(=O)N4CCCC4)nc3n2-c2c(OC)cccc2OC)n1 [Example 73, N-(1-(2,6-dimethoxyphenyl)-2-(6-ethoxypyridin-2-yl)-1H-imidazo[4,5-b]pyrazin-6-yl)pyrrolidine-1-sulfonamide]
20 | 1 to 100 | CCOc1cccc(-c2nc3ncc(NCC4CC4)nc3n2-c2c(OC)cccc2OC)n1 [Example 67, N-(cyclopropylmethyl)-1-(2,6-dimethoxyphenyl)-2-(6-ethoxypyridin-2-yl)-1H-imidazo[4,5-b]pyrazin-6-amine]
21 | 100 to 10000 | CCOc1cccc(-c2nc3nc(Cl)cnc3n2-c2c(OC)cccc2OC)n1 [Example 15, 5-chloro-1-(2,6-dimethoxyphenyl)-2-(6-ethoxypyridin-2-yl)-1H-imidazo[4,5-b]pyrazine]
22 | 1 to 100 | CCOc1cccc(-c2nc3ncc(N(Cc4ccccc4)Cc4ccccc4)nc3n2-c2c(OC)cccc2OC)n1 [Example 11, N,N-dibenzyl-1-(2,6-dimethoxyphenyl)-2-(6-ethoxypyridin-2-yl)-1H-imidazo[4,5-b]pyrazin-6-amine]
23 | 1 to 100 | CCOc1cccc(-c2nc3ncc(NS(=O)(=O)N(C)C)nc3n2-c2c(OC)cccc2OC)n1 [Example 76, N-(1-(2,6-dimethoxyphenyl)-2-(6-ethoxypyridin-2-yl)-1H-imidazo[4,5-b]pyrazin-6-yl)-N′,N′-dimethylsulfamide]
24 | 1 to 100 | CCOc1cccc(-c2nc3ncc(NCc4ccccc4)nc3n2-c2c(OC)cccc2OC)n1 [Example 13, N-benzyl-1-(2,6-dimethoxyphenyl)-2-(6-ethoxypyridin-2-yl)-1H-imidazo[4,5-b]pyrazin-6-amine]
25 | < 1 | CCOc1cccc(-c2nc3ncc(NS(=O)(=O)c4ccccc4)nc3n2-c2c(OC)cccc2OC)n1 [Example 5, N-(1-(2,6-dimethoxyphenyl)-2-(6-ethoxypyridin-2-yl)-1H-imidazo[4,5-b]pyrazin-6-yl)benzenesulfonamide]
26 | 1 to 100 | CCOc1cccc(-c2nc3ncc(NS(=O)(=O)CC(C)(C)O)nc3n2-c2c(OC)cccc2OC)n1 [Example 70]
27 | 1 to 100 | CCOc1cccc(-c2nc3ncc(NC(=O)Cc4ccccc4)nc3n2-c2c(OC)cccc2OC)n1 [Example 14, N-(1-(2,6-dimethoxyphenyl)-2-(6-ethoxypyridin-2-yl)-1H-imidazo[4,5-b]pyrazin-6-yl)-2-phenylacetamide]
